# According to patent US20020137929A1, “1 - (3-heterocyclylphenyl) isothiourea, -isourea, -guanidine and -amidine herbicidal agents” (Intellectual Property Department, BASF Aktiengesellschaft, priority 1998, published 2002):
# Experiments:
# [1] = test system: GLXMAW (Soybean, Williams); assay: Postemergence herbicidal evaluation; assay type: in vivo, Glycine max, (L.) Merr. cv Williams
# Summary of the method: (§1)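 ~2-wk seedlings; postemergence spray, 40 psi; vehicle 1:1 acetone:water + 0.5% Tween 20; rate ≈0.0156–0.500 kg/ha; greenhouse hold; scored 4–5 wk after treatment, 0–9 scale vs control; repeat tests averaged.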
# [2] = test system: CYPSE (Flatsedge); assay: Preemergence weed control under flooded paddy conditions; assay type: in vivo, Cyperus serotinus; conditions: rated 3-4 weeks after treatment
# Summary of the method: (§2)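 Silt loam, seeds in top 0.5 cm; flood held 1.5-3 cm; test cpd as acetone/water 50/50 into flood water, ~0.0313-0.500 kg/ha a.i.; greenhouse 3-4 wk; visual 0-9 score vs control.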
# [3] = test system: MOOVA (Monochoria); assay: as above; assay type: in vivo, Monochoria vaginalis; conditions: rated 3-4 weeks after treatment
# Summary of the method: as §2
# [4] = test system: AMBEL (Ragweed, Common); assay: Postemergence herbicidal evaluation; assay type: in vivo, Ambrosia artemisifolia
# Summary of the method: as §1
# [5] = test system: SETVI (Foxtail, Green); assay: Preemergence herbicidal evaluation; assay type: in vivo, Setaria viridis; conditions: rated 4-5 weeks after treatment
# Summary of the method: (§3)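 Each species is sown separately in potting soil over roughly an inch of soil before any emergence. The soil surface then receives an aqueous acetone spray delivering about 0.0156 to 0.500 kg/ha of compound. After four to five weeks, injury is scored from 0 to 9 relative to a control.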
# [6] = test system: ECHORC (Watergrass (Calif.)); assay: Preemergence weed control under flooded paddy conditions; assay type: in vivo, Echinochloa oryzoides; conditions: rated 3-4 weeks after treatment
# Summary of the method: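 Herbicidal effect is scored visually on a 0-9 scale against an untreated control, three to four weeks after compounds are pipetted into the flood water (1.5 to 3 cm deep) over seeds planted in silt loam at 0.5 cm depth. Rates: about 0.0313 to 0.500 kg/ha.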
# [7] = test system: ORYSAT (Rice, Tebonnet); assay: Preemergence herbicidal evaluation; assay type: in vivo, Oryza sativa, (L.) Tebonnet; conditions: rated 4-5 weeks after treatment
# Summary of the method: as §3
# [8] = test system: ECHORC (Watergrass (Calif.)); assay: Postemergence weed control under flooded paddy conditions; assay type: in vivo, Echinochloa oryzoides; conditions: postemergence weeds, 3-4 weeks after treatment
# Summary of the method: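 Injury ratings (0–9 scale covering stand, vigor, malformation, size, chlorosis and overall appearance versus control) were made three to four weeks after treatment. Test material, about 0.0313 to 0.500 kg/ha a.i. in 50/50 v/v aqueous/acetone, was added to flood water 1.5 to 3 cm deep over 3 to 5 cm weeds and 1.5 to 2.5 leaf rice.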
# [9] = test system: CASOB (Sicklepod); assay: Postemergence herbicidal evaluation; assay type: in vivo, Cassia obtusifolia
# Summary of the method: as §1
# [10] = test system: TRZAWR (Wheat, Winter, cv Riband); assay: Postemergence herbicidal evaluation; assay type: in vivo, Triticum aestivum
# Summary of the method: as §1
# [11] = test system: GALAP (Galium); assay: Preemergence herbicidal evaluation; assay type: in vivo, Galium aparine; conditions: rated 4-5 weeks after treatment
# Summary of the method: as §3
# [12] = test system: GALAP (Galium); assay: Postemergence herbicidal evaluation; assay type: in vivo, Galium aparine
# Summary of the method: as §1
compound,measurement,setting,value
"C=CCN1C(=O)C(CC(=O)Nc2ccccc2)SC1=Nc1cc(-n2c(=O)cc(C(F)(F)F)n(C)c2=O)c(F)cc1Cl (stereo not drawn) [Compound 44, 3-Allyl-2-{{2-chloro-5-[3,6-dihydro-3-methyl-2,6-dioxo-4-(trifluoromethyl)-1(2H)-pyrimidinyl]-4-fluorophenyl}imino}-4-oxo-5-thiazolidineacetanilide]",Postemergence herbicidal rating GLXMAW,[1]; Rate 0.0156 kg/ha,4.5
same,Postemergence herbicidal rating GLXMAW,[1]; Rate 0.0313 kg/ha,5.0
same,Postemergence herbicidal rating GLXMAW,[1]; Rate 0.0625 kg/ha,5.5
same,Postemergence herbicidal rating GLXMAW,[1]; Rate 0.1250 kg/ha,6.0
same,Herbicidal rating CYPSE,[2]; 0.0313 kg/ha,0.0
same,Herbicidal rating CYPSE,[2]; 0.0625 kg/ha,0.0
same,Herbicidal rating CYPSE,[2]; 0.1250 kg/ha,0.0
same,Herbicidal rating CYPSE,[2]; 0.2500 kg/ha,0.0
same,Herbicidal rating MOOVA,[3]; 0.0313 kg/ha,4.0
same,Herbicidal rating MOOVA,[3]; 0.0625 kg/ha,4.0
same,Herbicidal rating MOOVA,[3]; 0.1250 kg/ha,7.0
same,Herbicidal rating MOOVA,[3]; 0.2500 kg/ha,9.0
same,Postemergence herbicidal rating AMBEL,[4]; Rate 0.0156 kg/ha,4.0
same,Postemergence herbicidal rating AMBEL,[4]; Rate 0.0313 kg/ha,4.0
same,Postemergence herbicidal rating AMBEL,[4]; Rate 0.0625 kg/ha,7.0
same,Postemergence herbicidal rating AMBEL,[4]; Rate 0.1250 kg/ha,9.0
same,Preemergence herbicidal rating SETVI,[5]; rate 0.0156 kg/ha,0.0
same,Preemergence herbicidal rating SETVI,[5]; rate 0.0313 kg/ha,0.0
same,Preemergence herbicidal rating SETVI,[5]; rate 0.0625 kg/ha,0.0
same,Preemergence herbicidal rating SETVI,[5]; rate 0.1250 kg/ha,0.0
same,Preemergence herbicidal rating SETVI,[5]; rate 0.2500 kg/ha,0.0
same,Preemergence herbicidal rating SETVI,[5]; rate 0.5000 kg/ha,0.0
same,Herbicidal rating ECHORC,[6]; 0.0313 kg/ha,6.0
same,Herbicidal rating ECHORC,[6]; 0.0625 kg/ha,6.0
same,Herbicidal rating ECHORC,[6]; 0.1250 kg/ha,7.0
same,Herbicidal rating ECHORC,[6]; 0.2500 kg/ha,8.0
same,Preemergence herbicidal rating ORYSAT,[7]; rate 0.0156 kg/ha,0.0
same,Preemergence herbicidal rating ORYSAT,[7]; rate 0.0313 kg/ha,0.0
same,Preemergence herbicidal rating ORYSAT,[7]; rate 0.0625 kg/ha,0.0
same,Preemergence herbicidal rating ORYSAT,[7]; rate 0.1250 kg/ha,0.0
same,Preemergence herbicidal rating ORYSAT,[7]; rate 0.2500 kg/ha,0.0
same,Preemergence herbicidal rating ORYSAT,[7]; rate 0.5000 kg/ha,0.0
same,Herbicidal rating ECHORC,[8]; rate 0.0313 kg/ha,6.0
same,Herbicidal rating ECHORC,[8]; rate 0.0625 kg/ha,6.0
same,Herbicidal rating ECHORC,[8]; rate 0.1250 kg/ha,7.0
same,Herbicidal rating ECHORC,[8]; rate 0.2500 kg/ha,8.0
same,Postemergence herbicidal rating CASOB,[9]; Rate 0.0156 kg/ha,0.0
same,Postemergence herbicidal rating CASOB,[9]; Rate 0.0313 kg/ha,0.0
same,Postemergence herbicidal rating CASOB,[9]; Rate 0.0625 kg/ha,2.0
same,Postemergence herbicidal rating CASOB,[9]; Rate 0.1250 kg/ha,2.0
same,Postemergence herbicidal rating TRZAWR,[10]; Rate 0.0156 kg/ha,3.0
same,Postemergence herbicidal rating TRZAWR,[10]; Rate 0.0313 kg/ha,4.0
same,Postemergence herbicidal rating TRZAWR,[10]; Rate 0.0625 kg/ha,4.0
same,Postemergence herbicidal rating TRZAWR,[10]; Rate 0.1250 kg/ha,4.0
same,Preemergence herbicidal rating GALAP,[11]; rate 0.0156 kg/ha,1.0
same,Preemergence herbicidal rating GALAP,[11]; rate 0.0313 kg/ha,1.0
same,Preemergence herbicidal rating GALAP,[11]; rate 0.0625 kg/ha,1.0
same,Preemergence herbicidal rating GALAP,[11]; rate 0.1250 kg/ha,9.0
same,Preemergence herbicidal rating GALAP,[11]; rate 0.2500 kg/ha,9.0
same,Preemergence herbicidal rating GALAP,[11]; rate 0.5000 kg/ha,9.0
same,Postemergence herbicidal rating GALAP,[12]; Rate 0.0156 kg/ha,0.0
same,Postemergence herbicidal rating GALAP,[12]; Rate 0.0313 kg/ha,1.0
same,Postemergence herbicidal rating GALAP,[12]; Rate 0.0625 kg/ha,1.0
same,Postemergence herbicidal rating GALAP,[12]; Rate 0.1250 kg/ha,1.0
